Test results reported in US20240109877A1, “PYRIMIDINES FOR DEGRADING BRUTON'S TYROSINE KINASE” (AbbVie Inc., priority 2022, published 2024).

What was measured:
[1] = target: Human BTK enzyme, wild-type (Homo sapiens (Human), UniProt Q06187); assay: BTK Screening: Btk kinase activity, electrophoretic mobility shift assay (MSA); format: biochemical; conditions: 0.5 nM BTK enzyme, 50 μM ATP, 15 minutes pre-incubation, 3 hours at 25° C.
Description: Btk kinase activity was measured in vitro using an electrophoretic mobility shift assay (MSA). The ability of Btk to phosphorylate a fluorescent peptide substrate (FAM-GEEPLYWSFPAKKK-NH2) was measured. The kinase reactions were assembled in a total volume of 25 μL per well in 384 well plates. The following was added to each well: compound buffer (or control); enzyme buffer; and substrate buffer, as further described below.
Specifically the following was added: (1) compound buffer or control: 5μL of 5× compound buffer [(5× compound buffer comprised of: 1× Master Buffer, X μM test compound in 5% dimethyl sulfoxide; (2× Master Buffer comprised of 200 mM HEPES, pH7.5, 0.2% BSA, and 0.02% Triton X-100)]; and (2) enzyme buffer: 10 μL of 2.5× enzyme buffer (1× Master Buffer, 12.5 mM MgCl2, 2.5 mM DTT, 25 μM sodium orthovanadate, 25 μM beta-glycerophosphate, and 1.25 nM BTK enzyme). Human BTK enzyme Nanosyn-293HEK, wild-type, available from Nanosyn, Santa Clara, CA). Enzyme and compound were pre-incubated for 15 minutes. Additionally, the following was added: (3) substrate buffer: 10 μL of 2.5× substrate buffer (1× Master Buffer, […], and 2.5 μM of the peptide substrate FAM). Each plate was incubated at 25° C. for 3 hours. The reaction was terminated by adding to each well: 45 μL of 1.55× stop buffer (1× Master Buffer and 31 mM EDTA). The final reaction mixture was as follows: 100 mM HEPES, pH7.5; 0.1% BSA; 0.01% Triton X-100; 1 mM DTT; 5 mM MgCl2; 10 μM sodium orthovanadate; 10 μM beta-glycerophosphate; 50 μM ATP; 1% dimethyl sulfoxide (from compound); 1μM fluorescent peptide substrate and 0.5 nM BTK- enzyme. The terminated reactions were analyzed using a 12 channel LABCHIP® 3000 microfluidic detection instrument (available from Caliper Life Sciences, Waltham, MA). […] As substrate and product peptides were separated, two peaks of fluorescence were observed. Change in the relative fluorescence intensity of the substrate and product peaks was the parameter measured, reflecting enzyme activity. In the presence of an active compound, the ratio between product and substrate was altered. The signal of the product decreased, while the signal of the substrate increased. Capillary electrophoregrams (RDA acquisition files) were analyzed using HTS Well Analyzer software (available from Caliper Life Sciences, Waltham, MA).
Activity in each sample was determined as the product to sum ratio (PSR): P/(S+P), where P was the peak height of the product peptide and S was the peak height of the substrate peptide. For each compound, enzyme activity was measured at various concentrations (12 concentrations of compound spaced by 3× dilution intervals). Negative control samples (0% inhibition in the absence of an active compound) and positive control samples (100% inhibition, in the presence of 20 mM EDTA) were assembled in replicates of four and were used to calculate % inhibition values for each active compound at each concentration. Percent inhibition (Pinh) was determined using following equation: Pinh=(PSR0%−PSRinh)/(PSR0%−PSR100%)*100, where PSRinh was the product sum ratio in the presence of inhibitor, PSR0% was the average product sum ratio in the absence of active compound and PSR100% was the average product sum ratio in 100%-inhibition control samples.
The IC50 values of active compounds were determined by 4 parameter sigmoidal dose response model fitting of the inhibition curves (Pinh versus inhibitor concentration) using XLfit® 4 software (IDBS, Boston, MA). The IC50 values are reported in Table 2 in the BTK IC50 (nM) column.

[2] = target: His-tagged Cereblon/DDB1 complex (Homo sapiens (Human), UniProt Q96SW2); assay: Cereblon Binding Assay (AlphaLISA Human Cereblon Binding Kit, competition); conditions: 10 μM top dose, biotin-labeled ligand competition; read-out: CRBN IC50
Description: Cereblon binding was measured in vitro using an AlphaLISA® Human Cereblon Binding Kit (PerkinElmer, Waltham, MA) according to the manufacturer's protocol (“Alpha” refers to Amplified Luminescent Proximity Homogeneous Assay). In this assay, donor beads and acceptor beads come into proximity through ligand binding to CRBN protein. Excitation of the donor beads provokes the release of singlet oxygen that triggers a cascade of energy transfer reactions to the acceptor beads, resulting in a sharp peak in light emission at 615 nm.
Specifically, nickel chelate acceptor beads (PerkinElmer AL108M) were used to capture a 6XHIS-tagged CRBN protein, and streptavidin-coated donor beads (PerkinElmer 6760002) were used to capture 50 nM biotinylated ligand. Each well included the following: sample or control; HIS-tagged CRBN protein; biotinylated ligand; nickel chelate acceptor beads; and streptavidin donor beads.
Competition Assay: Test compounds in 100% dimethyl sulfoxide were plated onto white, low volume 384 well plates (PerkinElmer Proxiplate 384 plus # 6008289) using an Labcyte Echo acoustic dispenser, in an 11-point dose curve and 3-fold dilution scheme. […] Plates were incubated for 30 minutes at room temperature.
Detection: 10 μL detection reagents were added in low light conditions containing nickel chelate acceptor beads and streptavidin donor beads (Perkin Elmer 6760002), resulting in a final concentration 20 ng/ml. Plates were incubated 1 hour and read on a PerkinElmerTM Envision™ plate reader (680 nm excitation and […] settings). The IC50 of each compound was determined by calculating percent inhibition from no drug and no protein controls, and the Ki of each compound was calculated using the Cheng-Prusoff transformation. From the IC50 values were determined. The IC50 values are reported in Table 2 in the CRBN IC50 (nM) column.

[3] = target: BTK protein in human whole blood (Homo sapiens (Human), UniProt Q06187); assay: Btk protein in human whole blood MSD ELISA based assay (Btk degradation); format: cell-based; conditions: human whole blood from healthy donors, 6 hours at 37° C., half maximal degradation concentration; read-out: hWB BTK DC50
Description: Btk protein degradation was tested using an Meso Scale Discovery-ELISA system (MSD-ELISA): (1) Test compounds were added to human whole blood; (2) human whole blood cells treated with test compounds were lysed; (3) lysed cells were treated with capture antibody, an antibody to Btk; (4) lysed cells were treated with […] to Btk; and (5) lysed cells were treated with anti-mouse antibody (tagged).
Specifically, about 80 μl of fresh human whole blood from healthy donors was transferred into each well of a 96-well V-bottom plate (Costar, Cat No.3894). Using a TECANTM D300e Digital Dispenser (Tecan)), 1:4 serially diluted compounds [(8 pt assay) in DMSO solution (final 0.2%) starting at 3 μM top concentration], were added in duplicate. Thereafter, plates were placed in a 37° C. incubator and incubated for 6 hours.
At the end of incubation, 80 μl of 2× CST lysis buffer (Cell Signaling Technology, Cat No. 9803), prepared from a 10× stock solution, was added per well to lyse the blood. Plates were then sealed with a plate sealer and the samples were frozen overnight at −80° C.
Total amount of BTK protein remaining in the blood samples after compound treatment was measured using MSD-ELISA. After thawing the frozen plates, blood lysates were mixed thoroughly and transferred to small spot high-bind MSD plates (Meso Scale Discovery, Cat No. L45XB-3) and coated with capturing antibody, rabbit anti-human BTK (D3H5) (Cell Signaling Technology, Cat No. 8547CF). Thereafter, primary detection antibody, mouse anti-human BTK monoclonal antibody, (BD Biosciences, Cat No. 611117) and secondary detection antibody, anti-mouse SULFO-TAG (Meso Scale Discovery, Cat No. R32AC-1) were added. The assay plates were read on an MSD S600 plate reader by the addition of 2× MSD read buffer (Meso Scale Discovery, R92TC-1). All reagent transfers, including blood lysis, was conducted using a Biomed i7 liquid handler. From the dose response curves, DC50 values were calculated by averaging data from duplicate experiments. and Curve fitting was done by non-linear regression using GraphPad Prism. The DC50 values are reported in Table 2 in the hWB BTK DC50 (nM) column The Dmax values represent the maximum amount of BTK degradation observed upon compound treatment compared to DMSO only treated samples. The dMax (%) values are reported in Table 2 in the hWB BTK dMax (%) column.

## COC[C@H]1CN(CCc2ccc(N3CCC(=O)NC3=O)cc2)CCN1c1ccc(Nc2cc(-c3ccc([C@@H](C)NC(=O)c4nc(C(C)(C)C)no4)c(C)c3)ncn2)nc1 [Example 15, 3-tert-butyl-N-[(1R)-1-{4-[6-({5-[(2R)-4-{2-[4-(2,4-dioxo-1,3-diazinan-1-yl)phenyl]ethyl}-2-(methoxymethyl)piperazin-1-yl]pyridin-2-yl}amino)pyrimidin-4-yl]-2-methylphenyl}ethyl]-1,2,4-oxadiazole-5-carboxamide]
[1]
  IC50: 0.0986 nM
[2]
  IC50: ≥ 10000 nM
[3]
  DC50: 4.21 nM

## C[C@@H](NC(=O)c1nc(C(C)(C)C)no1)c1ccc(-c2cc(Nc3ccc(N4CCN(CCc5ccc(N6CCC(=O)NC6=O)cc5)C[C@@H]4C)cn3)ncn2)cc1C(F)(F)F [Example 16, 3-tert-butyl-N-[(1R)-1-{4-[6-({5-[(2S)-4-{2-[4-(2,4-dioxo-1,3-diazinan-1-yl)phenyl]ethyl}-2-methylpiperazin-1-yl]pyridin-2-yl}amino)pyrimidin-4-yl]-2-(trifluoromethyl)phenyl}ethyl]-1,2,4-oxadiazole-5-carboxamide]
[1]
  IC50: 0.438 nM
[2]
  IC50: ≥ 10000 nM
[3]
  DC50: 14.2 nM

## C[C@@H](NC(=O)c1nc(C(C)(C)C)no1)c1ccc(-c2cc(Nc3ccc(N4CCN(CCc5ccc(N6CCC(=O)NC6=O)cc5)C[C@@H]4C)cn3)ncn2)cc1F [Example 17, 3-tert-butyl-N-[(1R)-1-{4-[6-({5-[(2S)-4-{2-[4-(2,4-dioxo-1,3-diazinan-1-yl)phenyl]ethyl}-2-methylpiperazin-1-yl]pyridin-2-yl}amino)pyrimidin-4-yl]-2-fluorophenyl}ethyl]-1,2,4-oxadiazole-5-carboxamide]
[1]
  IC50: 0.103 nM
[2]
  IC50: 3870 nM
[3]
  DC50: 4.13 nM
